Experimental data: patent US20070093520A1, “Method of treatment of diarrhea-predominant irritable bowel syndrome in a subject” (priority 2005, published 2007)

Tested on: diarrhea-predominant IBS subjects
Assay: 3007 Study: open-label 52-week safety study, adverse events and withdrawals
Conditions: P/C group

Compound: Cc1nccn1C[C@H]1CCc2c(c3cccc4c3n2CCC4)C1=O [cilansetron, (R)-(−)-4,5,6,8,9,10-hexahydro-10-[(2-methyl-1H-imidazol-1-yl)methyl]-11H-pyrido-[3,2,1-jk]-carbazol-11-one]
- TEAE: Anaemias NEC: 1 (<1%) n (%)
- TEAE: Angina Pectoris: 0 n (%)
- TEAE: Anorexia: 1 (<1%) n (%)
- TEAE: Anxiety: 5 (2%) n (%)
- TEAE: Anxiety Aggravated: 1 (<1%) n (%)
- TEAE: Anxiety Symptoms: 7 (3%) n (%)
- TEAE: Apocrine and Eccrine Gland Disorders: 3 (1%) n (%)
- TEAE: Appetite Disorders: 1 (<1%) n (%)
- TEAE: Arrhythmia NOS: 0 n (%)
- TEAE: Asthenic Conditions: 7 (3%) n (%)
- TEAE: Asthma Aggravated: 0 n (%)
- TEAE: Asthma NOS: 1 (<1%) n (%)
- TEAE: Atopic Disorders: 1 (<1%) n (%)
- TEAE: Atrial Fibrillation: 0 n (%)
- TEAE: Atrioventricular Block First Degree: 0 n (%)
- TEAE: Basal Cell Carcinoma: 4 (1%) n (%)
- TEAE: Behaviour and Socialisation Disturbances: 1 (<1%) n (%)
- TEAE: Benign Ovarian Tumour*: 1 (<1%) n (%)
- TEAE: Biliary Tract Disorder NOS: 1 (<1%) n (%)
- TEAE: Binocular Eye Movement Disorder NOS: 1 (<1%) n (%)
- TEAE: Bladder Disorders NEC: 1 (<1%) n (%)
- TEAE: Bladder Infections and Inflammations: 1 (<1%) n (%)
- TEAE: Bladder Prolapse: 1 (<1%) n (%)
- TEAE: Bladder and Urethral Symptoms: 1 (<1%) n (%)
- TEAE: Blood and Lymphatic System Disorders: 2 (<1%) n (%)
- TEAE: Bone Neoplasm Malignant: 0 n (%)
- TEAE: Bone Neoplasms Malignant (Excl Sarcomas): 0 n (%)
- TEAE: Bradyarrhythmia: 1 (<1%) n (%)
- TEAE: Breast Calcifications*: 1 (<1%) n (%)
- TEAE: Breast Cancer NOS*: 2 (1%) n (%)
- TEAE: Breast Disorder NOS*: 1 (<1%) n (%)
- TEAE: Breast Disorders NEC*: 4 (2%) n (%)
- TEAE: Breast Mass NOS*: 2 (1%) n (%)
- TEAE: Breast and Nipple Neoplasms Malignant*: 2 (1%) n (%)
- TEAE: Breath Sounds Decreased: 0 n (%)
- TEAE: Breathing Abnormalities: 1 (<1%) n (%)
- TEAE: Bronchospasm and Obstruction: 1 (<1%) n (%)
- TEAE: Bruising, Ecchymosis and Purpura: 0 n (%)
- TEAE: Bundle Branch Block Right: 0 n (%)
- TEAE: Calculus Renal NOS: 0 n (%)
- TEAE: Calculus Ureteric: 0 n (%)
- TEAE: Cardiac Conduction Disorders: 0 n (%)
- TEAE: Cardiac Disorders: 6 (2%) n (%)
- TEAE: Cardiac Fibrillation NOS: 1 (<1%) n (%)
- TEAE: Cardiac Flutter: 1 (<1%) n (%)
- TEAE: Cardiac Signs and Symptoms NEC: 2 (<1%) n (%)
- TEAE: Cataract Unilateral: 0 n (%)
- TEAE: Cataracts (Excl Congenital): 1 (<1%) n (%)
- TEAE: Cerumen Impaction: 0 n (%)
- TEAE: Chest Discomfort: 1 (<1%) n (%)
- TEAE: Chest Pain: 4 (1%) n (%)
- TEAE: Chest Tightness: 0 n (%)
- TEAE: Cholecystitis and Cholelithiasis: 0 n (%)
- TEAE: Cholelithiasis: 0 n (%)
- TEAE: Congenital, Familial and Genetic Disorders: 1 (<1%) n (%)
- TEAE: Conjunctival Infections, Irritations and Inflammations: 0 n (%)
- TEAE: Conjunctivitis: 0 n (%)
- TEAE: Conjunctivitis Allergic: 0 n (%)
- TEAE: Contusion: 2 (<1%) n (%)
- TEAE: Cough: 6 (2%) n (%)
- TEAE: Coughing and Associated Symptoms: 6 (2%) n (%)
- TEAE: Cyst NOS: 0 n (%)
- TEAE: Cystitis Interstitial: 1 (<1%) n (%)
- TEAE: Dacryostenosis Acquired: 0 n (%)
- TEAE: Deafness NOS: 0 n (%)
- TEAE: Dehydration: 1 (<1%) n (%)
- TEAE: Depression: 5 (2%) n (%)
- TEAE: Depression Aggravated: 1 (<1%) n (%)
- TEAE: Depressive Disorders: 6 (2%) n (%)
- TEAE: Dermal and Epidermal Conditions NEC: 4 (1%) n (%)
- TEAE: Dermatitis Allergic: 1 (<1%) n (%)
- TEAE: Dermatitis Ascribed to Specific Agent: 1 (<1%) n (%)
- TEAE: Dermatitis Contact: 1 (<1%) n (%)
- TEAE: Dermatitis Medicamentosa: 1 (<1%) n (%)
- TEAE: Dermatitis NOS: 1 (<1%) n (%)
- TEAE: Dermatitis and Eczema: 4 (1%) n (%)
- TEAE: Dermographism: 1 (<1%) n (%)
- TEAE: Diabetes Mellitus (Incl Subtypes): 1 (<1%) n (%)
- TEAE: Diabetes Mellitus Aggravated: 1 (<1%) n (%)
- TEAE: Diabetes Mellitus Non-Insulin-Dependent: 0 n (%)
- TEAE: Disturbances in Initiating and Maintaining Sleep: 0 n (%)
- TEAE: Drug Hypersensitivity: 0 n (%)
- TEAE: Dry Eye NOS: 0 n (%)
- TEAE: Dysfunctional Uterine Bleeding*: 0 n (%)
- TEAE: Dyshidrosis: 1 (<1%) n (%)
